Active and inactive are the calls of the source. No cut-off for these calls is given here.
How the values were obtained:
Spinacia oleracea [1] = experiment: Inhibition of Spinacia oleracea (spinach) chloroplast electron transport chain-mediated PMS-induced cyclic phosphorylation at 200 uM […]
Spinacia oleracea [2] = experiment: Inhibition of Spinacia oleracea (spinach) chloroplast electron transport chain-mediated sulfhydryl-induced ATP-Pi exchange assessed as inorganic phosphate release at 200 uM treated during activation stage
Spinacia oleracea [3] = experiment: Inhibition of Spinacia oleracea (spinach) chloroplast electron transport chain-mediated DAD-induced cyclic phosphorylation at 50 uM by polarographically
Spinacia oleracea [4] = experiment: Inhibition of Spinacia oleracea (spinach) chloroplast electron transport chain assessed as residual electron flow from water to ferricyanide up to 300 uM by polarographically relative to control
[5] = Inhibition of Spinacia oleracea (spinach) chloroplast electron transport chain-mediated noncyclic electron flow using methylviologen as acceptor by polarographically
[6] = target: Photosystem II protein D1 (Spinacia oleracea) (UniProt P69560); experiment: Inhibition of Spinacia oleracea (spinach) photosystem II assessed as electron flow from H20 to PDOX at 300 uM after 1 hr by polarographically
[7] = target: Photosystem II protein D1 (Spinacia oleracea) (UniProt P69560); experiment: Inhibition of Spinacia oleracea (spinach) photosystem II assessed as light-induced re-reduction of Cyt-f at 200 uM added prior to illumination by dual wavelength spectrophotometer analysis
[8] = Inhibition of Spinacia oleracea (spinach) chloroplast electron transport chain-mediated sulfhydryl-induced ATP-Pi exchange assessed as inorganic phosphate release
Spinacia oleracea [9] = experiment: Inhibition of Spinacia oleracea (spinach) chloroplast electron transport chain-mediated light-induced ATP-Pi exchange assessed as inorganic phosphate release at 200 uM
Spinacia oleracea [10] = experiment: Inhibition of Spinacia oleracea (spinach) chloroplast electron transport chain-mediated rate of oxygen evolution per mg of chloroplast at 62.5 uM
Spinacia oleracea [11] = experiment: Inhibition of Spinacia oleracea (spinach) chloroplast electron transport chain-mediated light-induced ATP-Pi exchange assessed as inorganic phosphate release at 200 uM treated during incubation stage
Spinacia oleracea [12] = experiment: Inhibition of Spinacia oleracea (spinach) chloroplast electron transport chain-mediated light-induced ATP-Pi exchange assessed as inorganic phosphate release at 200 uM treated during activation stage
Spinacia oleracea [13] = experiment: Inhibition of Spinacia oleracea (spinach) chloroplast electron transport chain-mediated PMS-induced cyclic phosphorylation at 25 uM […]
Spinacia oleracea [14] = experiment: Inhibition of Spinacia oleracea (spinach) chloroplast electron transport chain-mediated sulfhydryl-induced ATP-Pi exchange assessed as inorganic phosphate release at 200 uM
Spinacia oleracea [15] = experiment: Inhibition of Spinacia oleracea (spinach) chloroplast electron transport chain-mediated sulfhydryl-induced ATP-Pi exchange assessed as inorganic phosphate release at 200 uM treated during incubation stage
Spinacia oleracea [16] = experiment: Inhibition of Spinacia oleracea (spinach) chloroplast electron transport chain-mediated DAD-induced cyclic phosphorylation at 200 uM by polarographically
[17] = target: T1, Photosystem I iron-sulfur center (Spinacia oleracea) (UniProt P10098); experiment: Inhibition of Spinacia oleracea (spinach) photosystem I mediated noncyclic photophosphorylation assessed as 32P-orthophosphate incorporation into ATP up to 300 uM […]
T1 sequence (whole entry): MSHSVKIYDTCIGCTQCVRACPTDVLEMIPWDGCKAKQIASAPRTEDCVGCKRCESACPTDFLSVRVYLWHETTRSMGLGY

Spinacia oleracea [18] = experiment: Inhibition of Spinacia oleracea (spinach) chloroplast electron transport chain-mediated PMS-induced cyclic phosphorylation at 50 uM […]
Spinacia oleracea [19] = experiment: Inhibition of Spinacia oleracea (spinach) chloroplast electron transport chain assessed as residual activity of noncyclic electron flow using methylviologen as acceptor up to 300 uM by polarographically relative to control
Spinacia oleracea [20] = experiment: Inhibition of Spinacia oleracea (spinach) chloroplast electron transport chain-mediated DAD-induced cyclic phosphorylation at 25 uM by polarographically
[21] = target: T1, Photosystem I iron-sulfur center (Spinacia oleracea); experiment: Inhibition of Spinacia oleracea (spinach) photosystem I assessed as light-induced oxidation of Cyt-f at 200 uM added prior to illumination by dual wavelength spectrophotometer analysis
Spinacia oleracea [22] = experiment: Inhibition of Spinacia oleracea (spinach) chloroplast electron transport chain-mediated DAD-induced cyclic phosphorylation up to 200 uM by polarographically in presence of ascorbate in red light
[23] = target: T1, Photosystem I iron-sulfur center (Spinacia oleracea); experiment: Inhibition of Spinacia oleracea (spinach) photosystem I assessed as electron flow from ascorbate/DAD to methylviologen at >200 uM after 1 hr by polarographically
[24] = Inhibition of Spinacia oleracea (spinach) chloroplast electron transport chain-mediated noncyclic photophosphorylation assessed as 32P-orthophosphate incorporation into ATP […]
Spinacia oleracea [25] = experiment: Inhibition of Spinacia oleracea (spinach) chloroplast electron transport chain-mediated PMS-induced cyclic phosphorylation at 100 uM by polarographically
Spinacia oleracea [26] = experiment: Inhibition of Spinacia oleracea (spinach) chloroplast electron transport chain-mediated rate of oxygen evolution per mg of chloroplast at 62.5 uM preincubated with DTT in dark condition for 5 min presence of 0.31 mM DTT
[27] = Inhibition of Spinacia oleracea (spinach) chloroplast electron transport chain-mediated light-induced ATP-Pi exchange assessed as inorganic phosphate release
Spinacia oleracea [28] = experiment: Inhibition of Spinacia oleracea (spinach) chloroplast electron transport chain-mediated rate of oxygen evolution per mg of chloroplast at 62.5 uM in presence of 0.31 mM DTT
[29] = Inhibition of Spinacia oleracea (spinach) chloroplast electron transport chain assessed as electron flow from water to ferricyanide by polarographically
[30] = target: Photosystem II protein D1 (Spinacia oleracea) (UniProt P69560); experiment: Inhibition of Spinacia oleracea (spinach) photosystem II mediated noncyclic photophosphorylation assessed as 32P-orthophosphate incorporation into ATP up to 300 uM by polarographically
Spinacia oleracea [31] = experiment: Inhibition of Spinacia oleracea (spinach) chloroplast electron transport chain-mediated DAD-induced cyclic phosphorylation at 100 uM by polarographically
[32] = Inhibition of Spinacia oleracea (spinach) chloroplast electron transport chain-mediated Mg2+-ATPase activity assessed as inorganic phosphate release
Spinacia oleracea [33] = experiment: Inhibition of Spinacia oleracea (spinach) chloroplast electron transport chain-mediated DAD-induced cyclic phosphorylation at 10 uM by polarographically
Spinacia oleracea [34] = experiment: Inhibition of Spinacia oleracea (spinach) chloroplast electron transport chain-mediated DAD-induced cyclic phosphorylation up to 200 uM by polarographically in absence of DCMU in white light
Spinacia oleracea [35] = experiment: Inhibition of Spinacia oleracea (spinach) chloroplast electron transport chain-mediated DAD-induced cyclic phosphorylation up to 200 uM by polarographically in absence of DCMU in red light
Spinacia oleracea [36] = experiment: Inhibition of Spinacia oleracea (spinach) chloroplast electron transport chain-mediated PMS-induced cyclic phosphorylation at 10 uM by polarographically
[37] = target: Photosystem II protein D1 (Spinacia oleracea) (UniProt P69560); experiment: Inhibition of Spinacia oleracea (spinach) photosystem II assessed as light-induced re-reduction of Cyt-f at 100 uM added prior to illumination by dual wavelength spectrophotometer analysis
[38] = Inhibition of Spinacia oleracea (spinach) chloroplast electron transport chain-mediated PMS-induced cyclic phosphorylation […]
Spinacia oleracea [39] = experiment: Inhibition of Spinacia oleracea (spinach) chloroplast electron transport chain-mediated rate of oxygen evolution per mg of chloroplast at 125 uM
Spinacia oleracea [40] = experiment: Inhibition of Spinacia oleracea (spinach) chloroplast electron transport chain-mediated rate of oxygen evolution per mg of chloroplast at 125 uM in presence of 0.31 mM DTT
[41] = target: T2, Photosystem II protein D1 (Spinacia oleracea, UniProt P69560); experiment: Inhibition of Spinacia oleracea (spinach) photosystem II mediated noncyclic photophosphorylation assessed as 32P-orthophosphate incorporation into ATP […]
Spinacia oleracea [42] = experiment: Inhibition of Spinacia oleracea (spinach) chloroplast electron transport chain-mediated rate of oxygen evolution per mg of chloroplast at 125 uM preincubated with DTT in dark condition for 5 min presence of 0.31 mM DTT
[43] = target: T1, Photosystem I iron-sulfur center (Spinacia oleracea); experiment: Inhibition of Spinacia oleracea (spinach) photosystem I assessed as light-induced oxidation of Cyt-f at 100 uM added prior to illumination by dual wavelength spectrophotometer analysis
[44] = target: T2, Photosystem II protein D1; experiment: Inhibition of Spinacia oleracea (spinach) photosystem II assessed as electron flow from H20 to PDOX after 1 hr by polarographically

Row | Structure (SMILES) | inhibition (Spinacia oleracea [1]) [%] | inhibition (Spinacia oleracea [2]) | inhibition (Spinacia oleracea [3]) [%] | IC50 [8] [µM] | inhibition (Spinacia oleracea [9]) | Activity (Spinacia oleracea [10]) [µmol/h] | inhibition (Spinacia oleracea [11]) | inhibition (Spinacia oleracea [12]) | inhibition (Spinacia oleracea [13]) [%] | inhibition (Spinacia oleracea [14]) | inhibition (Spinacia oleracea [15]) | inhibition (Spinacia oleracea [16]) [%] | inhibition (Spinacia oleracea [18]) [%] | inhibition (Spinacia oleracea [20]) [%] | inhibition [23] | IC50 [24] [µM] | inhibition (Spinacia oleracea [25]) [%] | IC50 [27] [µM] | Activity (Spinacia oleracea [28]) [µmol/h] | IC50 [29] [µM] | further results
1 | CCCN(CCC)c1c([N+](=O)[O-])cc(C(F)(F)F)cc1[N+](=O)[O-] [TRIFLURALIN] | 20 | Active | 28 | 20 | Active | 62 | Active | Active | 16 | Active | Active | 6 | 18 | 24 | inactive | 50 | 16 | 20 | 64 | 10 | Activity (Spinacia oleracea [4]): 10%; IC50 [5]: 10 µM; Imax [6]: 50%; inhibition [7]: Active; inhibition [17]: inactive; Activity (Spinacia oleracea [19]): 10%; inhibition [21]: inactive; inhibition (Spinacia oleracea [22]): Active; Activity (Spinacia oleracea [26]): 60 µmol/h; inhibition [30]: inactive; inhibition (Spinacia oleracea [31]): 17%; IC50 [32]: 90 µM; inhibition (Spinacia oleracea [33]): 6%; inhibition (Spinacia oleracea [34]): Active; inhibition (Spinacia oleracea [35]): Active; inhibition (Spinacia oleracea [36]): 4%
2 | CC(C)N(C(=O)SC/C(Cl)=C/Cl)C(C)C [Diallate] | 66 | Active | 48 | 20 | Active | 105 | Active | Active | 25 | Active | Active | 32 | 54 | 32 | inactive | 25 | 52 | 20 | 97 | 20 | inhibition [37]: Active; inhibition [6]: Active; IC50 [38]: 50 µM; Activity (Spinacia oleracea [39]): 40 µmol/h; Activity (Spinacia oleracea [40]): 30 µmol/h; IC50 [41]: 100 µM; Activity (Spinacia oleracea [42]): 30 µmol/h; inhibition [43]: inactive; inhibition (Spinacia oleracea [31]): 20%; IC50 [32]: 65 µM; inhibition (Spinacia oleracea [33]): 8%; IC50 [44]: 75 µM; inhibition (Spinacia oleracea [36]): 8%

From ChEMBL document CHEMBL3046870, “Inhibition of chloroplast electron transport reactions by trifluralin and diallate” (Plant Physiol, 1977)
